Reference: article PMC5923142, “Selection and Characterization of Rupintrivir-Resistant Norwalk Virus Replicon Cells In Vitro” (Antimicrobial Agents and Chemotherapy, 2018)

Key:
HRV2 N165T = tested on: HRV2 N165T; parameters: method as in PMID 17908951; conditions: serial passage of HRV2 for 62 days; cited from earlier work
GII protease = assay: Cell-based FRET assay, GII WT protease; parameters: species or system norovirus GII.4 (DQ658413); conditions: compared with GI and GV WT proteases, HEK293T cells
Description: (§1) The generation of plasmids expressing norovirus protease from GI.1 (M87661), GII.4 (DQ658413), or GV (DQ285629) norovirus and FRET assay constructs has been described previously ([18]). The plasmids carrying GI, GII, and GV proteases with the A105V, I109V, or A105V/I109V mutation were generated from the wild-type (WT) protease constructs described above by the QuikChange site-directed mutagenesis method. Mutant MNV genomes for reverse genetics were generated by two-step PCR mutagenesis of the WT MNV genome (pT7 MNV 3RZ) construct as described previously ([27]). The primers used for generation of the plasmids are listed in Tables S1 and S2 in the supplemental material.
(§2) The YFP/CFP ratio was used to determine FRET efficiency, as described previously ([18], [40]). Briefly, HEK293T cells were plated into black 96-well cell culture microplates (Greiner Bio-One) at a density of 5 × 10^4 cells/well in 100 μl of DMEM containing 10% fetal bovine serum with or without various concentrations of rupintrivir and then incubated for 4 h in a CO2 incubator at 37°C. […] The plates were then analyzed on a SpectraMax i3 instrument in fluorescence mode, with excitation set at 434 nm and the reading emissions set at 477 nm (CFP) and 527 nm (YFP). The background fluorescence from wells transfected with pcDNA3.1 was determined and subtracted. […]

Norwalk virus replicon = assay: Susceptibility of HGT-NV replicon cells passaged in parallel in DMSO (qRT-PCR); format: cell-based, Human norovirus (HuNoV) GI
Method: Given the potent effects of rupintrivir on HGT-NV cells, we sought to determine whether rupintrivir-resistant replicons could be generated. To this end, HGT-NV cells were treated with 5 μM rupintrivir for 12 days in the absence of G418 selection, followed by subsequent passages in the presence of G418 with increasing concentrations of rupintrivir for up to 45 days (Fig. 1D). This approach yielded three lineages of replicon cells which were resistant to 10, 15, and 20 μM rupintrivir. To identify the mutations conferring the resistance to rupintrivir, we isolated cell clones by limiting dilution using replicon cells surviving after 45 days of culture and then evaluated the rupintrivir sensitivity of the replicon cells. […] All clones treated with 10 μM rupintrivir had the I109V single amino acid substitution, while the A105V/I109V double amino acid substitution was observed only in clones treated with 15 and 20 μM rupintrivir. […]
The inhibitory effect of rupintrivir on HuNoV replication was assessed by quantification of the levels of GI NuNoV RNA and β-actin RNA as the reference gene. […] The real-time quantitative reverse transcription-PCR (qRT-PCR) assay was performed by using a One-Step Plus qRT-PCR kit according to the protocol of the manufacturer (Primer Design). […] Relative quantification was performed using the 2^−ΔΔCT threshold cycle (CT) method ([38]). […]

GV I109V mutant protease = target: T1, GV I109V mutant protease (Norovirus, UniProt Q80J95, I1103V); assay: Cell-based FRET assay, GV I109V protease; parameters: species or system murine norovirus (MNV) GV (DQ285629)
T1 construct: plasmids expressing norovirus protease from GI.1 (M87661), GII.4 (DQ658413), or GV (DQ285629) norovirus; expressed in transfected cells; host or cells: HEK293T
T1 sequence (Q80J95 995-1177 I1103V): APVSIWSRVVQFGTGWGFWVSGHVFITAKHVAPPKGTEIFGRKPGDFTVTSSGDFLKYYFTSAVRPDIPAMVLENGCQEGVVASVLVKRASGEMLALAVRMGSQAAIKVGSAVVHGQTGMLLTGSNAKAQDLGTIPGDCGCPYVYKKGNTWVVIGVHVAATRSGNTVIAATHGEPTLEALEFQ
Description: as §1, §2

in vitro = format: cell-based; conditions: human; HGT-NV cells, 72 h, resazurin; read-out: 50% cytotoxic concentration (CC50)
Method: The cell cytotoxicity of rupintrivir against HGT-NV cells was determined by a resazurin assay ([39]). Briefly, subconfluent HGT-NV cells in 96-well plates were treated with various concentrations of rupintrivir and then incubated for 72 h in a CO2 incubator at 37°C. After incubation, the supernatant was removed and the cells were washed with PBS, and then complete DMEM containing resazurin (0.1 mg/ml) was added to the cells. After 4 h of incubation, the optical density at 560 nm with a 620-nm optical density reference was determined by using a SpectraMax i3 instrument (Molecular Devices). The 50% cytotoxic concentration (CC50) values of rupintrivir were calculated using XLfit (version 5.3) software.

CCOC(=O)/C=C/[C@H](C[C@@H]1CCNC1=O)NC(=O)[C@@H](CC(=O)[C@@H](NC(=O)c1cc(C)on1)C(C)C)Cc1ccc(F)cc1 [rupintrivir, Rupintrivir]
fold reduced susceptibility (HRV2 N165T): 2 fold
susceptibility of the protease to rupintrivir (GII protease): substantially lower
Fold change in sensitivity (Norwalk virus replicon; DMSO-passaged cells, relative to DMSO): 1.0
EC50 (Norwalk virus replicon; Norwalk virus, read-out: Mean EC50 ± SD): 1300 ± 200 nM
IC50 (GV I109V mutant protease; HEK293T cells, GV NS1/2-NS3 FRET substrate): 2700 ± 600 nM
fold increase in IC50 (GV I109V mutant protease; vs GV WT protease): 2.7 fold
CC50 (in vitro): > 100000 nM
